Measurements as given in PubChem BioAssay (NCI).
Several values for one entry are separate records, joined by “and”; a condition that tells them apart may be missing. Identical values can stand only once.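 Briefly, cells in 96-well plates were exposed to five compound concentrations for 48 h, and endpoints were estimated by linear interpolation. GI50: concentration for 50% inhibition of growth. TGI is the concentration that stops growth completely.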

Legend:
Test in all cases: DTP human tumour cell line panel, 48 h
HCT-116 colon = tested on: HCT-116 colon
ACHN renal = tested on: ACHN renal
A549 NSCLC = tested on: A549 NSCLC
UACC-62 melanoma = tested on: UACC-62 melanoma
SK-OV-3 ovarian = tested on: SK-OV-3 ovarian
IGROV1 ovarian = tested on: IGROV1 ovarian
SF-539 CNS = tested on: SF-539 CNS
M14 melanoma = tested on: M14 melanoma
MDA-MB-231 breast = tested on: MDA-MB-231 breast
EKVX NSCLC = tested on: EKVX NSCLC
DU-145 prostate = tested on: DU-145 prostate
SK-MEL-5 melanoma = tested on: SK-MEL-5 melanoma
HOP-92 NSCLC = tested on: HOP-92 NSCLC
A498 renal = tested on: A498 renal
UO-31 renal = tested on: UO-31 renal
NCI/ADR-RES ovarian = tested on: NCI/ADR-RES ovarian
HT29 colon = tested on: HT29 colon
RPMI-8226 leukemia = tested on: RPMI-8226 leukemia
SNB-75 CNS = tested on: SNB-75 CNS
HCT-15 colon = tested on: HCT-15 colon
SF-295 CNS = tested on: SF-295 CNS
OVCAR-5 ovarian = tested on: OVCAR-5 ovarian
PC-3 prostate = tested on: PC-3 prostate
CAKI-1 renal = tested on: CAKI-1 renal
BT-549 breast = tested on: BT-549 breast
T-47D breast = tested on: T-47D breast
SK-MEL-28 melanoma = tested on: SK-MEL-28 melanoma
SN12C renal = tested on: SN12C renal
UACC-257 melanoma = tested on: UACC-257 melanoma
TK-10 renal = tested on: TK-10 renal
786-0 renal = tested on: 786-0 renal
HL-60(TB) leukemia = tested on: HL-60(TB) leukemia
RXF 393 renal = tested on: RXF 393 renal
COLO 205 colon = tested on: COLO 205 colon
LOX IMVI melanoma = tested on: LOX IMVI melanoma
MALME-3M melanoma = tested on: MALME-3M melanoma
MOLT-4 leukemia = tested on: MOLT-4 leukemia
NCI-H522 lung = tested on: NCI-H522 lung
KM12 colon = tested on: KM12 colon
K-562 leukemia = tested on: K-562 leukemia
OVCAR-8 ovarian = tested on: OVCAR-8 ovarian
MDA-MB-435 = tested on: MDA-MB-435
SK-MEL-2 melanoma = tested on: SK-MEL-2 melanoma
NCI-H460 lung = tested on: NCI-H460 lung
NCI-H23 lung = tested on: NCI-H23 lung
U251 CNS = tested on: U251 CNS
NCI-H226 lung = tested on: NCI-H226 lung
SNB-19 CNS = tested on: SNB-19 CNS
MCF7 breast = tested on: MCF7 breast
SW-620 colon = tested on: SW-620 colon
HOP-62 NSCLC = tested on: HOP-62 NSCLC
OVCAR-4 ovarian = tested on: OVCAR-4 ovarian
SR leukemia = tested on: SR leukemia
OVCAR-3 ovarian = tested on: OVCAR-3 ovarian
CCRF-CEM leukemia = tested on: CCRF-CEM leukemia
SF-268 CNS = tested on: SF-268 CNS

CCCCCCCCCCCCC[N+](C)(C)Cc1ccccc1
GI50 (HCT-116 colon): 0.925 µM | TGI (HCT-116 colon): 2.14 µM | GI50 (ACHN renal): 3.41 µM | TGI (ACHN renal): 12.8 µM | GI50 (A549 NSCLC): 1.61 µM | TGI (A549 NSCLC): 3.17 µM | GI50 (UACC-62 melanoma): 0.633 µM | TGI (UACC-62 melanoma): 1.95 µM | GI50 (SK-OV-3 ovarian): 1.31 µM | TGI (SK-OV-3 ovarian): 2.6 µM | GI50 (IGROV1 ovarian): 0.477 µM | TGI (IGROV1 ovarian): 1.82 µM | GI50 (SF-539 CNS): 1.45 µM | TGI (SF-539 CNS): 2.97 µM | GI50 (M14 melanoma): 1.04 µM | TGI (M14 melanoma): 2.4 µM | GI50 (MDA-MB-231 breast): 1.35 µM | TGI (MDA-MB-231 breast): 2.9 µM | GI50 (EKVX NSCLC): 1.57 µM | TGI (EKVX NSCLC): 4.52 µM | GI50 (DU-145 prostate): 1.42 µM | TGI (DU-145 prostate): 2.74 µM | GI50 (SK-MEL-5 melanoma): 0.874 µM | TGI (SK-MEL-5 melanoma): 2.11 µM | GI50 (HOP-92 NSCLC): 0.338 µM | TGI (HOP-92 NSCLC): 1.83 µM | GI50 (A498 renal): 1.44 µM | TGI (A498 renal): 5.01 µM | GI50 (UO-31 renal): 2.05 µM | TGI (UO-31 renal): 6.42 µM | GI50 (NCI/ADR-RES ovarian): 18 µM | TGI (NCI/ADR-RES ovarian): 50.5 µM | GI50 (HT29 colon): 0.493 µM | TGI (HT29 colon): 1.93 µM | GI50 (RPMI-8226 leukemia): 0.451 µM | TGI (RPMI-8226 leukemia): 2.52 µM | GI50 (SNB-75 CNS): 1.5 µM | TGI (SNB-75 CNS): 2.97 µM | GI50 (HCT-15 colon): 5.08 µM | TGI (HCT-15 colon): 25.4 µM | GI50 (SF-295 CNS): 1.42 µM | TGI (SF-295 CNS): 2.87 µM | GI50 (OVCAR-5 ovarian): 1.47 µM | TGI (OVCAR-5 ovarian): 2.92 µM | GI50 (PC-3 prostate): 0.306 µM | TGI (PC-3 prostate): 1.4 µM | GI50 (CAKI-1 renal): 4.99 µM | TGI (CAKI-1 renal): 23 µM | GI50 (BT-549 breast): 1.13 µM | TGI (BT-549 breast): 2.42 µM | GI50 (T-47D breast): 0.336 µM | TGI (T-47D breast): 1.71 µM | GI50 (SK-MEL-28 melanoma): 1.52 µM | TGI (SK-MEL-28 melanoma): 2.89 µM | GI50 (SN12C renal): 1.2 µM | TGI (SN12C renal): 2.61 µM | GI50 (UACC-257 melanoma): 1.36 µM | TGI (UACC-257 melanoma): 2.85 µM | GI50 (TK-10 renal): 0.871 µM | TGI (TK-10 renal): 2.21 µM | GI50 (786-0 renal): 1.56 µM | TGI (786-0 renal): 3.07 µM | GI50 (HL-60(TB) leukemia): 0.68 µM | TGI (HL-60(TB) leukemia): 2.15 µM | GI50 (RXF 393 renal): 0.385 µM | TGI (RXF 393 renal): 1.6 µM | GI50 (COLO 205 colon): 1.14 µM | TGI (COLO 205 colon): 2.45 µM

COc1c(OCCCN2CCOCC2)ccc2c3n(c(=NC(=O)c4cnc(N)nc4)nc12)CCN3
GI50 (LOX IMVI melanoma): 64.9 nM [middle of 4 runs] | TGI (MALME-3M melanoma): 448 nM [middle of 4 runs] | GI50 (MOLT-4 leukemia): 0.0363 µM and 0.0409 µM and 0.0283 µM | GI50 (HCT-116 colon): 109 nM [middle of 4 runs] | TGI (HCT-116 colon): > 100 µM | GI50 (ACHN renal): 72.3 nM [middle of 4 runs] | TGI (ACHN renal): > 100 µM | GI50 (UACC-62 melanoma): 48.3 nM [middle of 4 runs] | TGI (UACC-62 melanoma): 464 nM [middle of 4 runs] | GI50 (NCI-H522 lung): 138 nM [middle of 4 runs] | TGI (SK-OV-3 ovarian): 0.0673 µM and 0.446 µM and 0.0745 µM | GI50 (KM12 colon): 368 nM [middle of 4 runs] | TGI (IGROV1 ovarian): 40.3 nM [middle of 4 runs] | TGI (SF-539 CNS): 664 nM [middle of 4 runs] | GI50 (K-562 leukemia): 1.68 µM [middle of 4 runs] | TGI (K-562 leukemia): > 100 µM | GI50 (M14 melanoma): 118 nM [middle of 4 runs] | GI50 (MDA-MB-231 breast): 339 nM [middle of 4 runs] | TGI (DU-145 prostate): > 100 µM | GI50 (SK-MEL-5 melanoma): 228 nM [middle of 4 runs] | TGI (SK-MEL-5 melanoma): 1.51 µM [middle of 4 runs] | GI50 (OVCAR-8 ovarian): 228 nM [middle of 4 runs] | TGI (OVCAR-8 ovarian): > 100 µM | GI50 (UO-31 renal): 0.0224 µM and 0.0238 µM and 0.0245 µM | GI50 (MDA-MB-435): 142 nM [middle of 4 runs] | GI50 (SK-MEL-2 melanoma): 197 nM [middle of 4 runs] | GI50 (NCI-H460 lung): 39.7 nM [middle of 4 runs] | TGI (NCI-H460 lung): > 100 µM | GI50 (NCI/ADR-RES ovarian): 428 nM [middle of 4 runs] | TGI (NCI/ADR-RES ovarian): > 100 µM | GI50 (HT29 colon): 0.0177 µM and 0.0249 µM and 0.0109 µM | TGI (HT29 colon): > 100 µM | GI50 (RPMI-8226 leukemia): 0.22 µM and 0.174 µM and 0.323 µM | TGI (RPMI-8226 leukemia): 2.05 µM and > 10 µM | GI50 (NCI-H23 lung): 398 nM [middle of 4 runs] | TGI (NCI-H23 lung): > 100 µM | TGI (U251 CNS): > 100 µM | GI50 (NCI-H226 lung): 144 nM [middle of 4 runs] | TGI (NCI-H226 lung): > 100 µM | GI50 (SNB-75 CNS): 0.0075 µM and < 0.0123 µM and < 0.01 µM | TGI (SNB-75 CNS): 0.0504 µM and 0.033 µM | GI50 (SNB-19 CNS): 297 nM [middle of 4 runs] | TGI (SNB-19 CNS): > 100 µM | GI50 (HCT-15 colon): 59.9 nM [middle of 4 runs] | TGI (HCT-15 colon): > 100 µM | GI50 (SF-295 CNS): 74.8 nM [middle of 4 runs] | TGI (SF-295 CNS): 814 nM [middle of 4 runs] | GI50 (OVCAR-5 ovarian): 31.2 nM [middle of 4 runs] | TGI (OVCAR-5 ovarian): > 100 µM | TGI (PC-3 prostate): > 100 µM | TGI (MCF7 breast): > 100 µM | TGI (CAKI-1 renal): 3.38 µM and > 10 µM and 2.4 µM | GI50 (SW-620 colon): 216 nM [middle of 4 runs] | TGI (SW-620 colon): > 100 µM | GI50 (T-47D breast): 0.0075 µM and 0.00258 µM and < 0.01 µM | TGI (T-47D breast): 0.0394 µM and 0.0408 µM and 0.0302 µM | GI50 (HOP-62 NSCLC): 132 nM [middle of 4 runs] | TGI (HOP-62 NSCLC): > 100 µM | TGI (SK-MEL-28 melanoma): 7.66 µM and 0.81 µM and 1.64 µM | GI50 (SN12C renal): 88.5 nM [middle of 4 runs] | TGI (SN12C renal): > 100 µM | GI50 (OVCAR-4 ovarian): 0.469 µM and 0.391 µM and 0.438 µM | TGI (OVCAR-4 ovarian): > 75 µM and 10.8 µM and 7.65 µM | GI50 (SR leukemia): 315 nM [middle of 4 runs] | GI50 (OVCAR-3 ovarian): 0.0362 µM and 0.0283 µM and 0.126 µM | TGI (OVCAR-3 ovarian): 0.89 µM and 0.976 µM and 4.92 µM | GI50 (UACC-257 melanoma): 77.4 nM [middle of 4 runs] | GI50 (CCRF-CEM leukemia): 48.9 nM [middle of 4 runs] | TGI (CCRF-CEM leukemia): > 100 µM | TGI (TK-10 renal): 0.198 µM and 0.782 µM | GI50 (786-0 renal): 91.3 nM [middle of 4 runs] | TGI (SF-268 CNS): > 100 µM | TGI (HL-60(TB) leukemia): > 75 µM | GI50 (COLO 205 colon): 38.1 nM [middle of 4 runs]
